Values joined by “and” are separate entries in the source; they are usually repeats but may differ in a detail not shown here. Identical values can stand only once.
What was measured:
HBECp53-EV cells = assay: Growth inhibition (alamarBlue, 96 h); type: cell-based, human; conditions: for raw viability signal (Source Data Fig. 3b-c): HBEC-EV, replicate sets; for IC50: Homo sapiens, 96 h, read-out: IC50 for Inhibition of Growth (95% CI)
[1] = biological target: T1, panel of 255 (vepafestinib) or 256 (all other inhibitors) recombinant kinases (Homo sapiens, UniProt P11362); assay: Kinase selectivity profiling at a single concentration (Carna Biosciences); type: biochemical
T1 construct: purchased Carna Biosciences

[2] = biological target: T2, panel of 255 (vepafestinib) or 256 (all other inhibitors) recombinant kinases (Homo sapiens, UniProt P22607); assay: as above; type: biochemical
T2 construct: purchased Carna Biosciences

[3] = biological target: T3, panel of 255 (vepafestinib) or 256 (all other inhibitors) recombinant kinases (Homo sapiens, UniProt Q15375); assay: as above; type: biochemical; conditions: 22 nM
T3 construct: purchased Carna Biosciences

[4] = biological target: T4, panel of 255 (vepafestinib) or 256 (all other inhibitors) recombinant kinases (Homo sapiens, UniProt Q06418); assay: as above; type: biochemical; conditions: 22 nM
T4 construct: purchased Carna Biosciences

[5] = biological target: T5, panel of 255 (vepafestinib) or 256 (all other inhibitors) recombinant kinases (Homo sapiens, UniProt O14757); assay: as above; type: biochemical; conditions: 22 nM
T5 construct: purchased Carna Biosciences

[6] = biological target: T6, panel of 255 (vepafestinib) or 256 (all other inhibitors) recombinant kinases (Homo sapiens, UniProt P09619); assay: as above; type: biochemical
T6 construct: purchased Carna Biosciences

[7] = biological target: T7, panel of 255 (vepafestinib) or 256 (all other inhibitors) recombinant kinases (Homo sapiens, UniProt P36888); assay: as above; type: biochemical
T7 construct: purchased Carna Biosciences

[8] = biological target: T8, panel of 255 (vepafestinib) or 256 (all other inhibitors) recombinant kinases (Homo sapiens, UniProt Q08345); assay: as above; type: biochemical
T8 construct: purchased Carna Biosciences

[9] = biological target: T9, panel of 255 (vepafestinib) or 256 (all other inhibitors) recombinant kinases (Homo sapiens, UniProt P21802); assay: as above; type: biochemical
T9 construct: purchased Carna Biosciences

[10] = biological target: T10, panel of 255 (vepafestinib) or 256 (all other inhibitors) recombinant kinases (Homo sapiens, UniProt P07949); assay: as above; type: biochemical
T10 construct: purchased Carna Biosciences

LUAD-0077AS1 PDX = assay: PDX efficacy study; type: in vivo, NSG mice; design: Tumor volume: unit not given here; conditions: for Area Under Curve Mean: Fig. 6b LUAD-0077AS1 tumor growth; for Change in tumor volume (block without heading, Fig. 6b) / Tumor volume: LUAD-0077AS1, individual animals
[11] = biological target: T11, panel of 255 (vepafestinib) or 256 (all other inhibitors) recombinant kinases (Homo sapiens, UniProt P35968); assay: Kinase selectivity profiling at a single concentration (Carna Biosciences); type: biochemical; conditions: 17 nM
T11 construct: purchased Carna Biosciences

T8 sequence (Q08345 19-913): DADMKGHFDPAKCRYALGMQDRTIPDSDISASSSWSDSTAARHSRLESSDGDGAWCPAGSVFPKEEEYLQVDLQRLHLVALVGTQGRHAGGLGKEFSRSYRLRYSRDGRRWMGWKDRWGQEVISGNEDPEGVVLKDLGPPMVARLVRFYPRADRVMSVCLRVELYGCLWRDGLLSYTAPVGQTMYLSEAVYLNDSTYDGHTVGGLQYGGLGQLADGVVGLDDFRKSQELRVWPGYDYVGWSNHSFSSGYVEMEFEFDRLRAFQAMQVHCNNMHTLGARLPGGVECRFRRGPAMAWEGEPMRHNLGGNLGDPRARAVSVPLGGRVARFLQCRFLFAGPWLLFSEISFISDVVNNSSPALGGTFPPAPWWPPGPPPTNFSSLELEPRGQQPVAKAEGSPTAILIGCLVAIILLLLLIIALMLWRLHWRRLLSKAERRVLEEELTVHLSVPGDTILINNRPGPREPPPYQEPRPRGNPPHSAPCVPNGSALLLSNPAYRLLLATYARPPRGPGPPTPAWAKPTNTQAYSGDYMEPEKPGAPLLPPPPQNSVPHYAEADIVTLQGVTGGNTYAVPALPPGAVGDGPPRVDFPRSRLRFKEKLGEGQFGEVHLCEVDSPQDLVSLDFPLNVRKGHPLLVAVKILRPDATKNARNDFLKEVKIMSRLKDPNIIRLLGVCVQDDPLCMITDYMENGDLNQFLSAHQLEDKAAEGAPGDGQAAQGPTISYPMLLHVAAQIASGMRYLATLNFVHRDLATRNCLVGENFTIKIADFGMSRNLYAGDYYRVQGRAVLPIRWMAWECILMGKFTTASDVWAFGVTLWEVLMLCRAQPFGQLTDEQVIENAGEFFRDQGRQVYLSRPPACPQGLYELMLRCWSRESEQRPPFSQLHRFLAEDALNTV
T7 sequence (P36888 27-993): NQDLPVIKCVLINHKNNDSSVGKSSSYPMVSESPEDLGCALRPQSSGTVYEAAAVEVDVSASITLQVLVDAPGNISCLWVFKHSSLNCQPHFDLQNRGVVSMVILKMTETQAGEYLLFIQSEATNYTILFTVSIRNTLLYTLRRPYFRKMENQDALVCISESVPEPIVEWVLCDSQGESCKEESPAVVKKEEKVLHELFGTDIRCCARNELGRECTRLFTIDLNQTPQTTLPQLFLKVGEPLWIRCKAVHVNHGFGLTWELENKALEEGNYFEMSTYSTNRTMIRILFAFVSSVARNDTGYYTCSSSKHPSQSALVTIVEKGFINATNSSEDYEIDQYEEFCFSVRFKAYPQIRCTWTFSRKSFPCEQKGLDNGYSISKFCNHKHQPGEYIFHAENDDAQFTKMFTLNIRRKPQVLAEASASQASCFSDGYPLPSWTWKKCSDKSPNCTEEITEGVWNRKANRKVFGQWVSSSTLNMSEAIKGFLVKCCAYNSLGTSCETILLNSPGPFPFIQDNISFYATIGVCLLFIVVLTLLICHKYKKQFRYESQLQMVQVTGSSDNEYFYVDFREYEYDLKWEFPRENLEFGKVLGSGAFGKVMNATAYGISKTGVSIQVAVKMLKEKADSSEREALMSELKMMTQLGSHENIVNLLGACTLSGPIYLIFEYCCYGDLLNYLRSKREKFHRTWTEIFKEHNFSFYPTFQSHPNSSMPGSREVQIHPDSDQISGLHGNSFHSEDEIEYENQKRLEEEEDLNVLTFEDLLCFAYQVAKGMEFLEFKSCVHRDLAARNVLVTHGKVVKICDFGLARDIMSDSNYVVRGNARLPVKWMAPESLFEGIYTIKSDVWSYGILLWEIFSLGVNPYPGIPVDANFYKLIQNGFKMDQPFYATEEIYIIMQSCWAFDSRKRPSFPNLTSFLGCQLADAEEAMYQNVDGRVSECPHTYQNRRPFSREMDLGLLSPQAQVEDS
T6 sequence (P09619 33-1106): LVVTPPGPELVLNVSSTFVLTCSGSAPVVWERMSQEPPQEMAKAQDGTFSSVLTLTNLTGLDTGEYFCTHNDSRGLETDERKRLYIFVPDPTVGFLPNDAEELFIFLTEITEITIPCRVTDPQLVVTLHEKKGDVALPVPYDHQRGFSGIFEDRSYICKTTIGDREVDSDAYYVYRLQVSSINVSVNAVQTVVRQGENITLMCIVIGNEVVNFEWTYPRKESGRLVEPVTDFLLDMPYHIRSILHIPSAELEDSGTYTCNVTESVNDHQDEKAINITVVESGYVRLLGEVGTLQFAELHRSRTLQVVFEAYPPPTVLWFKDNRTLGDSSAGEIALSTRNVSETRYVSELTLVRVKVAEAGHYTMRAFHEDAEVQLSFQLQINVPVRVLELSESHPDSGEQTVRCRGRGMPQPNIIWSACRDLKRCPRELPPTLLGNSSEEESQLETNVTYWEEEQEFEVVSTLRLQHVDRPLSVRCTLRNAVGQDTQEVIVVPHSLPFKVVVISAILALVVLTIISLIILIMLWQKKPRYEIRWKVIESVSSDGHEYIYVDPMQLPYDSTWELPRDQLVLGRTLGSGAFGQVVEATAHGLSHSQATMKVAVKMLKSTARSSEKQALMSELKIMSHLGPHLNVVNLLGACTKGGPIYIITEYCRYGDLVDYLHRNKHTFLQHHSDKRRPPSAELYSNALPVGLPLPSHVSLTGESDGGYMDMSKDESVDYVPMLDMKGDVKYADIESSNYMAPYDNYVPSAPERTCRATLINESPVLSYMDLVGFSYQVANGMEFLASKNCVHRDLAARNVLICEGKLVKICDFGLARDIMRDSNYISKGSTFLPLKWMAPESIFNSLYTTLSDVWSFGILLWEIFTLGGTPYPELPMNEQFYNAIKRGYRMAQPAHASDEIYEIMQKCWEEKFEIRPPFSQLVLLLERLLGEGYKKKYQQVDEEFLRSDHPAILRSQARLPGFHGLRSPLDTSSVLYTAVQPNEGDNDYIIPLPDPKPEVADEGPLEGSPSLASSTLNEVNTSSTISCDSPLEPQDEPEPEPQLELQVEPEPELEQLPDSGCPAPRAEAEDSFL
T9 sequence (P21802 22-821): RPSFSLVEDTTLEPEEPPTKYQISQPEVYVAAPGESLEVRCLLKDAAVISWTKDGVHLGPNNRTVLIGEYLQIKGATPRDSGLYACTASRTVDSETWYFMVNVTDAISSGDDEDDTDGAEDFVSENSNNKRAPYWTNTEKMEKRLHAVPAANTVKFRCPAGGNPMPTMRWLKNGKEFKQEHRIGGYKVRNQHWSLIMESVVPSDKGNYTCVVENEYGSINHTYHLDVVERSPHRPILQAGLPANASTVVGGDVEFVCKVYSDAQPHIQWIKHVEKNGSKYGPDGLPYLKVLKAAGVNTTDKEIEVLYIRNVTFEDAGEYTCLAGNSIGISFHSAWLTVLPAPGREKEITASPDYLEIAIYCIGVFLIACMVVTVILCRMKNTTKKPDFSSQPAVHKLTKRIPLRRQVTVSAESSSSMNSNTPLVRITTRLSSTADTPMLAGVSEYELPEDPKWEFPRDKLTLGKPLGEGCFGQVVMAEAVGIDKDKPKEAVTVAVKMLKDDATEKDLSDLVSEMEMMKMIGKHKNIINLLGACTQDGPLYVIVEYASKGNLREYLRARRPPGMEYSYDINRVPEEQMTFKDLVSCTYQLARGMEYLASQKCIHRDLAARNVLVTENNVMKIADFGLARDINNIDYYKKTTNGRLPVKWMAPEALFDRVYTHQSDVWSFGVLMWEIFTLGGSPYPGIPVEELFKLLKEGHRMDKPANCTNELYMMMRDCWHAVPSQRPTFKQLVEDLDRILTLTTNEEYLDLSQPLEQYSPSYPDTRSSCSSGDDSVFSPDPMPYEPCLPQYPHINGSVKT
T2 sequence (P22607 23-806): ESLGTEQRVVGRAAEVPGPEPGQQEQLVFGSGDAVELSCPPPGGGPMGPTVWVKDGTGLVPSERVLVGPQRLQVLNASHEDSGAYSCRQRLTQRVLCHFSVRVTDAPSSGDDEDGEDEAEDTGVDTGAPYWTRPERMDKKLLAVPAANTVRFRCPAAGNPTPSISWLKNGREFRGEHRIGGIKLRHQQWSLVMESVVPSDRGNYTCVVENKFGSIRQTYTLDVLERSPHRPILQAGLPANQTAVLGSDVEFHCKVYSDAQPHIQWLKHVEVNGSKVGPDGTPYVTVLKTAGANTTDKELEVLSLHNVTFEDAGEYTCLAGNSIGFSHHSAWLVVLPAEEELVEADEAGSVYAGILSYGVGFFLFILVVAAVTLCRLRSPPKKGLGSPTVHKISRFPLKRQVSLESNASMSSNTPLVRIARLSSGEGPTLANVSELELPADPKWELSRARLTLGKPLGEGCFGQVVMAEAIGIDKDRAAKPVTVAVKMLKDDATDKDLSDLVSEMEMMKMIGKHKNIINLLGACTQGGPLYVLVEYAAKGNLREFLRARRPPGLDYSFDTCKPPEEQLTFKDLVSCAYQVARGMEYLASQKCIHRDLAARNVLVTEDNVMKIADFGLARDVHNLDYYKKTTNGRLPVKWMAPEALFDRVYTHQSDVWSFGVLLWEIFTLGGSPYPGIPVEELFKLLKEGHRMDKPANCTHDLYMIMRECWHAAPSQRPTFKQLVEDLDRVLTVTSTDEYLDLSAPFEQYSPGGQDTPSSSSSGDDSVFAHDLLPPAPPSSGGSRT
T5 sequence (O14757 whole entry): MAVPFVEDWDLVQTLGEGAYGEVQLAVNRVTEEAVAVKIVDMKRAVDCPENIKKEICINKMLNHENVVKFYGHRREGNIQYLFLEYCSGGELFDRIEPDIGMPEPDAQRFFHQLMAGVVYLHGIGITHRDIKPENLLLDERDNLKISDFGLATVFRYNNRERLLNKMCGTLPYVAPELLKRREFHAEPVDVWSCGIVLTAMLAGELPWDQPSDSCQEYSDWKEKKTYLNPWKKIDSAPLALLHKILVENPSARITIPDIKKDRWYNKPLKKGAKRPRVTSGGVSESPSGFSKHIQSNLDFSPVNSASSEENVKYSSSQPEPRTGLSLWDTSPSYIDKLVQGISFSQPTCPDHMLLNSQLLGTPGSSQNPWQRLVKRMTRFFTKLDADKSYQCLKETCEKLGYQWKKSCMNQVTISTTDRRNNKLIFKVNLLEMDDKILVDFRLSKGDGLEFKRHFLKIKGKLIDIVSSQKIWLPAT

COc1ccc(CN2C3CC2CN(c2ccc(-c4cc(OCC(C)(C)O)cn5ncc(C#N)c45)cn2)C3)cn1 [Selpercatinib]
raw viability signal (Source Data Fig. 3b-c) (HBECp53-EV cells; 0.01 nM): 19116.4 (2×) and 30437.1 | raw viability signal (Source Data Fig. 3b-c) (HBECp53-EV cells; 0.1 nM): 18667.6 (2×) and 30340.4 | raw viability signal (Source Data Fig. 3b-c) (HBECp53-EV cells; 1 nM): 19461.2 (2×) and 29511.3 | raw viability signal (Source Data Fig. 3b-c) (HBECp53-EV cells; 10 nM): 19276.9 (2×) and 28618.6 | raw viability signal (Source Data Fig. 3b-c) (HBECp53-EV cells; 100 nM): 19331.4 (2×) and 28192.3 | raw viability signal (Source Data Fig. 3b-c) (HBECp53-EV cells; 1000 nM): 18208.7 (2×) and 25648.6 | raw viability signal (Source Data Fig. 3b-c) (HBECp53-EV cells; 10000 nM): 8503.33 | IC50 (HBECp53-EV cells): 11.4 µM | % Inhibiton FGFR1 ([1]; 22 nM): 21.4% | % Inhibiton FGFR3 ([2]; 22 nM): 35.9% | % Inhibiton EPHA7 [3]: 26.3% | % Inhibiton TYRO3 [4]: 38.2% | % Inhibiton CHK1 [5]: 15.2% | % Inhibiton PDGFRβ ([6]; 22 nM): 21.7% | % Inhibiton FLT3 ([7]; 22 nM): 52.5% | % Inhibiton DDR1 ([8]; 22 nM): 18% | % Inhibiton FGFR2 ([9]; 22 nM): 44.8% | % Inhibiton RET ([10]; 22 nM): 98.6% | Area Under Curve Mean (LUAD-0077AS1 PDX; 10 mg/kg BID): -23 | Change in tumor volume (block without heading, Fig. 6b) (LUAD-0077AS1 PDX; 10 mg/kg BID): 38.5614 and 19.1252 and 18.7579 and 13.1905 and -24.8651 | Tumor volume (LUAD-0077AS1 PDX; 10 mg/kg BID, treatment day 0): 87.11 (3×) and 85.5 and 88.7 | Tumor volume (LUAD-0077AS1 PDX; 10 mg/kg BID, treatment day 4): 68.07 (2×) and 74.9 and 73.54 and 70.82 | Tumor volume (LUAD-0077AS1 PDX; 10 mg/kg BID, treatment day 7): 60.32 and 69.38 and 66.76 and 62.86 | Tumor volume (LUAD-0077AS1 PDX; 10 mg/kg BID, treatment day 11): 55.4 and 58.99 and 56.5 and 54.36 and 55.52 | Tumor volume (LUAD-0077AS1 PDX; 10 mg/kg BID, treatment day 14): 43.41 and 58.99 (2×) and 54.36 and 55.52 | Tumor volume (LUAD-0077AS1 PDX; 10 mg/kg BID, treatment day 19): 65.45 and 118.47 and 103.45 and 103.77 and 100.4 | Tumor volume (LUAD-0077AS1 PDX; 10 mg/kg BID, treatment day 22): 73.3 and 171.06 and 147.55 and 142.9 and 164.22 | Tumor volume (LUAD-0077AS1 PDX; 10 mg/kg BID, treatment day 25): 73.3 and 231.59 and 205.8 and 209.11 and 214.85

CO[C@]1(C(=O)N[C@@H](C)c2ccc(-n3cc(F)cn3)nc2)CC[C@H](c2nc(C)cc(Nc3cc(C)[nH]n3)n2)CC1 [Pralsetinib]
raw viability signal (Source Data Fig. 3b-c) (HBECp53-EV cells; 0.01 nM): 18620.9 (2×) and 26084.1 and 32208.8 | raw viability signal (Source Data Fig. 3b-c) (HBECp53-EV cells; 0.1 nM): 18754 (2×) and 26388.7 and 34047.4 | raw viability signal (Source Data Fig. 3b-c) (HBECp53-EV cells; 1 nM): 20833.4 (2×) and 23057.6 and 32620.9 | raw viability signal (Source Data Fig. 3b-c) (HBECp53-EV cells; 10 nM): 19432.8 (2×) and 24252.3 and 33045.2 | raw viability signal (Source Data Fig. 3b-c) (HBECp53-EV cells; 100 nM): 20060.8 (2×) and 26236.5 and 33461.6 | raw viability signal (Source Data Fig. 3b-c) (HBECp53-EV cells; 1000 nM): 13712.5 (2×) and 19031.7 and 36040.1 | raw viability signal (Source Data Fig. 3b-c) (HBECp53-EV cells; 10000 nM): 6305.27 (2×) and 11469.7 and 22649.7 | IC50 (HBECp53-EV cells): 6.9 µM | % Inhibiton KDR [11]: 27.4% | % Inhibiton FGFR1 ([1]; 17 nM): 57% | % Inhibiton FGFR3 ([2]; 17 nM): 34.3% | % Inhibiton PDGFRβ ([6]; 17 nM): 69.8% | % Inhibiton FLT3 ([7]; 17 nM): 73.3% | % Inhibiton DDR1 ([8]; 17 nM): 72.1% | % Inhibiton FGFR2 ([9]; 17 nM): 29.4% | % Inhibiton RET ([10]; 17 nM): 96.7% | Area Under Curve Mean (LUAD-0077AS1 PDX; 15 mg/kg BID): 189.7 | Area Under Curve Mean (LUAD-0077AS1 PDX; 30 mg/kg BID): -512.3 | Change in tumor volume (block without heading, Fig. 6b) (LUAD-0077AS1 PDX; 15 mg/kg BID): 31.8218 and 17.159 and 11.071 and 13.2706 and -8.805 | Tumor volume (LUAD-0077AS1 PDX; 15 mg/kg BID, treatment day 0): 88.7 (3×) and 87.11 (2×) | Tumor volume (LUAD-0077AS1 PDX; 15 mg/kg BID, treatment day 4): 88.7 (4×) and 87.11 | Tumor volume (LUAD-0077AS1 PDX; 15 mg/kg BID, treatment day 7): 88.7 (2×) and 80.89 and 77.87 and 90.28 | Tumor volume (LUAD-0077AS1 PDX; 15 mg/kg BID, treatment day 11): 66.76 and 80.89 (2×) and 42.6 and 72.18 | Tumor volume (LUAD-0077AS1 PDX; 15 mg/kg BID, treatment day 14): 70.82 and 80.89 and 64.12 and 83.97 and 73.54 | Tumor volume (LUAD-0077AS1 PDX; 15 mg/kg BID, treatment day 19): 80.89 and 98.67 and 103.92 and 114.83 and 98.52 | Tumor volume (LUAD-0077AS1 PDX; 15 mg/kg BID, treatment day 22): 150.13 and 109.36 and 130.83 and 152.27 and 164.53 | Tumor volume (LUAD-0077AS1 PDX; 15 mg/kg BID, treatment day 25): 166.88 and 122.74 and 141.32 and 205.88 and 187.29 | Change in tumor volume (block without heading, Fig. 6b) (LUAD-0077AS1 PDX; 30 mg/kg BID): -26.3021 and -30.7542 and -32.7343 and -33.6127 and -36.9233 | Tumor volume (LUAD-0077AS1 PDX; 30 mg/kg BID, treatment day 0): 88.7 and 87.11 (2×) and 82.36 (2×) | Tumor volume (LUAD-0077AS1 PDX; 30 mg/kg BID, treatment day 4): 88.7 (2×) and 87.11 and 82.36 and 83.97 | Tumor volume (LUAD-0077AS1 PDX; 30 mg/kg BID, treatment day 7): 72.18 and 70.82 and 68.07 and 66.76 and 74.9 | Tumor volume (LUAD-0077AS1 PDX; 30 mg/kg BID, treatment day 11): 57.83 (2×) and 60.32 (2×) and 64.12 | Tumor volume (LUAD-0077AS1 PDX; 30 mg/kg BID, treatment day 14): 52.07 and 53.01 (2×) and 50.68 and 49.83 | Tumor volume (LUAD-0077AS1 PDX; 30 mg/kg BID, treatment day 19): 65.37 and 57.83 and 55.4 and 60.32 and 51.95 | Tumor volume (LUAD-0077AS1 PDX; 30 mg/kg BID, treatment day 22): 65.37 and 48.41 and 53.01 and 51.95 (2×) | Tumor volume (LUAD-0077AS1 PDX; 30 mg/kg BID, treatment day 25): 65.37 and 83.97 and 60.32 and 53.01 and 55.4
